Test results as given in patent US11787780B2 (CORCEPT THERAPEUTICS INCORPORATED, priority 2020, dated 2023).

Tests used:
[1] = system: induction of TAT by dexamethasone in HepG2 cells; assay: Hep G2 TAT assay (inhibition of dexamethasone-induced TAT); assay type: cell-based, human; conditions: challenge of 100 nM dexamethasone, IC50 converted to Ki by Cheng and Prusoff equation
[2] = target: glucocorticoid receptor (GR) recombinant ligand binding domain (LBD) (Homo sapiens (Human), UniProt P04150); assay: GR binding fluorescence polarisation (FP) assay; conditions: displacement of fluorescently tagged ligand
Sequence of glucocorticoid receptor (GR) recombinant ligand binding domain (LBD) (P04150 524-758): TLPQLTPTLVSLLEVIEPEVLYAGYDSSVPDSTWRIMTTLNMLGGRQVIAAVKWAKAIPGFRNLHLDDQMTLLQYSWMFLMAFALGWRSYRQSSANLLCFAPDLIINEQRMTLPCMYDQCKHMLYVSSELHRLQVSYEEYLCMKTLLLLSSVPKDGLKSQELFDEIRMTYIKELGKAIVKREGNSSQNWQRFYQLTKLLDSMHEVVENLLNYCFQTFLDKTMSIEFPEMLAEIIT
Experimental: Binding of test compounds to the glucocorticoid receptor (GR) is determined using a fluorescence polarisation (FP) assay utilising a recombinant ligand binding domain (LBD) of GR. The test compounds are assessed by their ability to displace a fluorescently tagged ligand and detection of the resulting decrease in fluorescence polarisation.

IC50 [2] | Structure (SMILES) | Ki [1]
930 nM | C[C@@H]1CN(S(=O)(=O)c2cnn(C)c2)CCN1c1ccc2c(cnn2-c2ccc(F)cc2)c1 [Example 1, (R)-1-(4-fluorophenyl)-5-(2-methyl-4-((1-methyl-1H-pyrazol-4-yl)sulfonyl)piperazin-1-yl)-1H-indazole] | 594 nM
214 nM | CCCn1cc(S(=O)(=O)N2CC[C@H](c3ccc4c(cnn4-c4ccc(F)cc4)c3)C[C@H]2C)cn1 [Example 10, 1-(4-fluorophenyl)-5-((2R,4S)-2-methyl-1-((1-propyl-1H-pyrazol-4-yl)sulfonyl)piperidin-4-yl)-1H-indazole] | 238 nM
8 nM | Cc1cc2c(cnn2-c2ccc(F)cc2)cc1C1(Cc2ccccc2)CCN(S(C)(=O)=O)C1 (centres unmarked) [Example 16, 5-(3-benzyl-1-(methylsulfonyl)pyrrolidin-3-yl)-1-(4-fluorophenyl)-6-methyl-1H-indazole] | 32 nM
67 nM | CCCn1cc(S(=O)(=O)N2CCC(Cc3ccccc3)(c3cc4cnn(-c5ccc(F)cc5)c4cc3C)CC2)cn1 [Example 25, 5-(4-benzyl-1-((1-propyl-1H-pyrazol-4-yl)sulfonyl)piperidin-4-yl)-1-(4-fluorophenyl)-6-methyl-1H-indazole] | 29 nM
114 nM | CNS(=O)(=O)C1CCN(c2cc3cnn(-c4ccc(F)cc4)c3cc2C)C1 (centres unmarked) [Example 28, 1-(1-(4-fluorophenyl)-6-methyl-1H-indazol-5-yl)-N-methylpyrrolidine-3-sulfonamide] | 1060 nM
9 nM | CCCn1cc(NS(=O)(=O)C2CCN(c3cc4cnn(-c5ccc(F)cc5)c4cc3C)C2)cn1 (centres unmarked) [Example 29, 1-(1-(4-fluorophenyl)-6-methyl-1H-indazol-5-yl)-N-(1-propyl-1H-pyrazol-4-yl)pyrrolidine-3-sulfonamide] | 210 nM
81 nM | C[C@@H]1CN(c2ccc3c(cnn3-c3ccc(F)cc3)c2)CCN1S(=O)(=O)c1cnn(CC2CC2)c1 [Example 39] | 242 nM
95 nM | Cc1cc2c(cnn2-c2ccc(F)cc2)cc1N1CCN(S(=O)(=O)c2cnn(CC3CC3)c2)[C@H](C)C1 [Example 43] | 467 nM
27 nM | CCCn1cc(S(=O)(=O)N2CCN(c3ccc4c(cnn4-c4ccc(F)cc4)c3)CC23CC3)cn1 [Example 50] | 480 nM
19 nM | Cc1cc2c(cnn2-c2ccc(F)cc2)cc1N1CCN(S(=O)(=O)c2cnn(C)c2)C2(CC2)C1 [Example 59] | 246 nM
25 nM | CCCn1cc(S(=O)(=O)N2C[C@H](C)N(c3ccc4c(cnn4-c4ccc(F)cc4)c3)C[C@@H]2C)cn1 [Example 61] | 205 nM
18 nM | Cc1cc2c(cnn2-c2ccc(F)cc2)cc1N1CCN(S(=O)(=O)c2cnn(CC(F)(F)F)c2)C2(CC2)C1 [Example 67] | 33 nM
28 nM | COc1cc2c(cnn2-c2ccc(F)cc2)cc1N1CCN(S(C)(=O)=O)C2(CC2)C1 [Example 70] | 1580 nM
118 nM | Cc1cc2c(cnn2-c2ccc(F)cc2)cc1N1CCN(C(=O)c2ccc(F)c(F)c2)C2(CC2)C1 [Example 101] | 823 nM
135 nM | CCOC(=O)N1CCN(c2cc3cnn(-c4ccc(F)cc4)c3cc2C)CC12CC2 [Example 103] | 1710 nM
73 nM | Cc1cc2c(cnn2-c2ccc(F)cc2)cc1N1CCC[C@H](N(C)S(C)(=O)=O)C1 [Example 123] | 284 nM
4 nM | Cc1cc2c(cnn2-c2ccc(F)cc2)cc1N1CCC(C)(NS(=O)(=O)c2cnn(C)c2)CC1 [Example 131] | 98 nM
7 nM | Cc1cc2c(cnn2-c2ccc(F)cc2)cc1N1CCC(C)(NS(=O)(=O)c2cnn(CC3CC3)c2)CC1 [Example 133] | 50 nM
429 nM | CS(=O)(=O)N1CC=C(c2cc3cnn(-c4ccc(F)cc4)c3cc2Cl)CC1 [Example 142] | 715 nM
42 nM | CCCn1cc(S(=O)(=O)N2CCC(Cc3ccccc3)(c3cc4cnn(-c5ccc(F)cc5)c4cc3C)C2)cn1 (centres unmarked) [Example 147] | 12 nM

The next lines start with the compound.

Structure (SMILES) | IC50 [2] | Ki [1]
CCCn1cc(S(=O)(=O)N2CCC(c3cc4cnn(-c5ccc(F)cc5)c4cc3C)CC2)cn1 [Example 6, 1-(4-fluorophenyl)-6-methyl-5-(1-((1-propyl-1H-pyrazol-4-yl)sulfonyl)piperidin-4-yl)-1H-indazole] | 148 nM | 118 nM
CCCn1cc(S(=O)(=O)N2CCC(c3ccc4c(cnn4-c4ccc(F)cc4)c3)C[C@H]2C)cn1 (stereo partly drawn) [Example 8, 1-(4-fluorophenyl)-5-((2R)-2-methyl-1-((1-propyl-1H-pyrazol-4-yl)sulfonyl)piperidin-4-yl)-1H-indazole] | 214 nM | 238 nM
CCCn1cc(S(=O)(=O)N2CC[C@@](Cc3ccccc3)(c3cc4cnn(-c5ccc(F)cc5)c4cc3C)C2)cn1 [Example 17, (S)-5-(3-benzyl-1-((1-propyl-1H-pyrazol-4-yl)sulfonyl)pyrrolidin-3-yl)-1-(4-fluorophenyl)-6-methyl-1H-indazole] | 52 nM | 23 nM
CCCn1cc(S(=O)(=O)N2CC[C@](Cc3ccccc3)(c3cc4cnn(-c5ccc(F)cc5)c4cc3C)C2)cn1 [Example 18, (R)-5-(3-benzyl-1-((1-propyl-1H-pyrazol-4-yl)sulfonyl)pyrrolidin-3-yl)-1-(4-fluorophenyl)-6-methyl-1H-indazole] | 24 nM | 9 nM
Cc1cc2c(cnn2-c2ccc(F)cc2)cc1C1(Cc2ccccc2)CCN(C)C1 (centres unmarked) [Example 20, 5-(3-benzyl-1-methylpyrrolidin-3-yl)-1-(4-fluorophenyl)-6-methyl-1H-indazole] | 8 nM | 236 nM
CCCn1cc(S(=O)(=O)N2CCC(COC)(c3cc4cnn(-c5ccc(F)cc5)c4cc3C)CC2)cn1 [Example 24, 1-(4-fluorophenyl)-5-(4-(methoxymethyl)-1-((1-propyl-1H-pyrazol-4-yl)sulfonyl)piperidin-4-yl)-6-methyl-1H-indazole] | 84 nM | 1510 nM
Cc1cc2c(cnn2-c2ccc(F)cc2)cc1C1CCN(C(=O)NC(C)C)CC1 [Example 32, 4-(1-(4-fluorophenyl)-6-methyl-1H-indazol-5-yl)-N-isopropylpiperidine-1-carboxamide] | 70 nM | 400 nM
Cc1cc2c(cnn2-c2ccc(F)cc2)cc1N1CCN(S(C)(=O)=O)C2(CC2)C1 [Example 58] | 32 nM | 321 nM
CCCn1cc(S(=O)(=O)N2CCN(c3cc4cnn(-c5ccc(F)cc5)c4cc3C)CC23CC3)cn1 [Example 60] | 8 nM | 39 nM
C[C@@H]1CN(c2ccc3c(cnn3-c3ccc(F)cc3)c2)CCN1S(=O)(=O)c1ccnn1C [Example 65] | 334 nM | 1480 nM
Cc1cc2c(cnn2-c2ccc(F)cc2)cc1N1CCN(S(=O)(=O)c2cnn(C(C)C)n2)C2(CC2)C1 [Example 68] | 35 nM | 30 nM
CCCn1cc(S(=O)(=O)N2C3CC2CN(c2cc4cnn(-c5ccc(F)cc5)c4cc2C)C3)cn1 [Example 73] | 151 nM | 306 nM
CCCn1cc(S(=O)(=O)N2CCN(c3cc4cnn(-c5cccc(C(=O)NC6CCOC6)c5)c4cc3C)CC23CC3)cn1 (centres unmarked) [Example 84] | 10 nM | 103 nM
Cc1cc2c(cnn2-c2cccc(C(=O)NC3CCOC3)c2)cc1N1CCN(S(C)(=O)=O)C2(CC2)C1 (centres unmarked) [Example 85] | 163 nM | 1420 nM
CCCn1cc(S(=O)(=O)N2CCN(c3cc4cnn(-c5ccc(F)cc5)c4cc3C)C(c3ccccc3)C2)cn1 (centres unmarked) [Example 86] | 162 nM | 864 nM
Cc1cc2c(cnn2-c2ccc(F)cc2)cc1N1CCC2CN(S(C)(=O)=O)CC21 (centres unmarked) [Example 90] | 45 nM | 343 nM
CCCn1cc(S(=O)(=O)N2CC3CCN(c4cc5cnn(-c6ccc(F)cc6)c5cc4C)C3C2)cn1 (centres unmarked) [Example 91] | 227 nM | 336 nM
CCCn1cc(S(=O)(=O)N2CCC3(CCN(c4cc5cnn(-c6ccc(F)cc6)c5cc4C)CC3)C2)cn1 [Example 94] | 52 nM | 95 nM
Cc1cc2c(cnn2-c2ccc(F)cc2)cc1N1CCN(C(=O)c2cnn(C)c2)C2(CC2)C1 [Example 100] | 233 nM | 1200 nM
CCCn1cc(S(=O)(=O)NC2(C)CCN(c3cc4cnn(-c5ccc(F)cc5)c4cc3C)C2)cn1 (centres unmarked) [Example 120] | 3 nM | 218 nM
COCCN([C@@H]1CCN(c2cc3cnn(-c4ccc(F)cc4)c3cc2C)C1)S(=O)(=O)c1cnn(C)c1 [Example 121] | 40 nM | 120 nM
CCCn1cc(S(=O)(=O)N(CCOC)[C@@H]2CCN(c3cc4cnn(-c5ccc(F)cc5)c4cc3C)C2)cn1 [Example 122] | 14 nM | 155 nM
Cc1cc2c(cnn2-c2ccc(F)cc2)cc1N1CCC[C@H](N(C)S(=O)(=O)c2cnn(C)c2)C1 [Example 124] | 58 nM | 216 nM
CCCn1cc(S(=O)(=O)NC2(C)CCN(c3cc4cnn(-c5ccc(F)cc5)c4cc3C)CC2)cn1 [Example 129] | 5 nM | 66 nM
Cc1cc2c(cnn2-c2ccc(F)cc2)cc1N1CCC(C)(NS(C)(=O)=O)CC1 [Example 130] | 8 nM | 144 nM
Cc1cc2c(cnn2-c2ccc(F)cc2)cc1N1CCC(C)(NS(=O)(=O)c2cnn(CC3CC3)n2)CC1 [Example 132] | 13 nM | 34 nM
CCCn1cc(S(=O)(=O)N2CC=C(c3cc4cnn(-c5ccc(F)cc5)c4cc3C(C)C)CC2)cn1 [Example 141] | 4220 nM | 487 nM
CCCn1cc(S(=O)(=O)N2CC=C(c3cc4cnn(-c5ccc(F)cc5)c4cc3Cl)CC2)cn1 [Example 143] | 384 nM | 32 nM
CCCn1cc(S(=O)(=O)N2CC=C(c3cc4cnn(-c5ccc(F)cc5)c4cc3OC(F)F)CC2)cn1 [Example 144] | 265 nM | 180 nM
